# Assay results taken from patent US20240010642A1, “MODULATORS OF PROGRAMMED DEATH-LIGAND-1” (SOUTHERN RESEARCH INSTITUTE, priority 2021, published 2024).
# Square brackets hold non-standard residues; d marks the D form. Peptide text beside a SMILES is read from it. * marks the point of attachment. Api = NC1(C(=O)O)CCNCC1; PhAc = O=C(Cc1ccccc1)*; Ac3c = NC1(C(=O)O)CC1; Aib = CC(C)(N)C(=O)O
# Molecular target: PDL-1 (Homo sapiens (Human), UniProt Q9NZQ7)
# Test: KD binding (Table 1)
# Sequence of PDL-1 (Q9NZQ7 19-290): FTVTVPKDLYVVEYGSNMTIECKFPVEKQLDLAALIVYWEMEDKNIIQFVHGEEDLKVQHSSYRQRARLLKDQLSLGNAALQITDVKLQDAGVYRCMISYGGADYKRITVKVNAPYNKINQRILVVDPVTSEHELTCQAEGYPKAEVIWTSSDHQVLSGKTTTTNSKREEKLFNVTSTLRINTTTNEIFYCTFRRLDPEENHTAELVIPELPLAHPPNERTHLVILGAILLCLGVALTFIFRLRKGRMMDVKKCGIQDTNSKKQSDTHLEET
row,SMILES,KD
1,"CC(C)(NC(=O)c1cc(CN)cc(NC(=O)Cc2ccccc2)c1)C(N)=O [Compound No. 1, 2-[[3-(Aminomethyl)-5-(2-phenylacetamido)phenyl]formamido]-2-methylpropanamide]",No Binding
2,CC(C)(NC(=O)c1cc(NC(=O)Cc2ccc(F)cc2)cc(CN)c1F)C(N)=O [compound 16],No Binding
3,CNC(=O)C(C)(C)NC(=O)c1cc(CN(C)C)cc(NC(=O)Cc2ccc(F)cc2)c1 [compound 18],No Binding
4,NCc1cc(NC(=O)Cc2ccccc2)cc(C(=O)NC2(C(N)=O)CCCC2)c1 [compound 7],No Binding

# System: PDL-1 signaling
# Test: Luciferase assay (Table 1)
# Type: cell-based
row,SMILES,EC50 [µM]
1,NCc1cc(NC(=O)Cc2ccccc2)cc(C(=O)NC2(C(N)=O)CC2)c1 [compound 3],12.6
2,CN(C)Cc1cc(NC(=O)Cc2ccc(F)cc2)cc(C(=O)NC(C)(C)C(N)=O)c1 [compound 17],0.21
3,NCc1cc(NC(=O)Cc2ccc(F)cc2)cc(C(=O)NC2(C(N)=O)CCC2)c1 [compound 10],7.06
4,CC(C)(NC(=O)c1ccc(CN)c(NC(=O)Cc2ccc(F)cc2)c1)C(N)=O [compound 13],20.4
5,NCc1cc(NC(=O)Cc2ccccc2)cc(C(=O)NC2(C(N)=O)CCC2)c1 [compound 6],27.1
6,NCc1cc(NC(=O)Cc2ccc(F)cc2)cc(C(=O)NCC(N)=O)c1 [compound 9],0.07
7,NC(=O)C1(NC(=O)C2(NC(=O)Cc3ccccc3)CCNCC2)CC1 [compound 24] (PhAc-[Api]-[Ac3c]-NH2),7.73
8,"CC(C)(NC(=O)C1(NC(=O)Cc2ccccc2)CCNCC1)C(N)=O [Compound No. 22, 2-methyl-2-[[4-(2-phenylacetamido)piperidin-4-yl]formamido]propanamide] (PhAc-[Api]-[Aib]-NH2)",4.22
9,"CC(C)(NC(=O)c1cc(CN)cc(NC(=O)Cc2ccccc2)c1)C(N)=O [Compound No. 1, 2-[[3-(Aminomethyl)-5-(2-phenylacetamido)phenyl]formamido]-2-methylpropanamide]",0.39
10,CC(C)(NC(=O)c1cc(NC(=O)Cc2ccc(F)cc2)cc(CN)c1F)C(N)=O [compound 16],20.6
11,NC(=O)C1(NC(=O)C2(NC(=O)Cc3ccc(F)cc3)CCNCC2)CC1 [compound 25],0.36
12,NCc1cc(NC(=O)Cc2ccc(F)cc2)cc(C(=O)NC2(C(N)=O)CC2)c1 [compound 4],15.7
13,CNC(=O)C(C)(C)NC(=O)c1cc(CN(C)C)cc(NC(=O)Cc2ccc(F)cc2)c1 [compound 18],21
14,CC(C)(NC(=O)c1cc(NC(=O)Cc2ccccc2)cc(CN)c1F)C(N)=O [compound 15],19.3
15,CC(C)(NC(=O)C1(NC(=O)Cc2ccc(F)cc2)CCNCC1)C(N)=O [compound 23],9.02
16,NCc1cc(NC(=O)Cc2ccccc2)cc(C(=O)NC2(C(N)=O)CCCC2)c1 [compound 7],26.1
17,CC(C)(NC(=O)c1cc(NC(=O)Cc2ccccc2)ccc1CN)C(N)=O [compound 11],20
18,CC(C)(NC(=O)c1ccc(CN)c(NC(=O)Cc2ccccc2)c1)C(N)=O [compound 14],1.19
19,CNC(=O)C(C)(C)NC(=O)c1cc(CN)cc(NC(=O)Cc2ccc(F)cc2)c1 [compound 19],20.7
20,CC(C)(NC(=O)c1cc(NC(=O)Cc2ccc(F)cc2)ccc1CN)C(N)=O [compound 12],14.3
21,CC(C)(NC(=O)c1cc(CN)cc(NC(=O)Cc2ccc(F)cc2)c1)C(N)=O [Compound No. 2],0.93
